# Patent publication US20220226357A1, “METHODS FOR TREATING NEURODEGENERATIVE DISORDERS” (THOMAS JEFFERSON UNIVERSITY, priority 2019, published 2022)
# “Also recorded” adds a separate entry of the source. Marks after values point to notes of the source that are not given here.
# Legend:
# [1] = system: differentiated SH-SY5Y cells; experiment: Uptake of GFP-α-Syn from conditioned medium; type: cell-based; conditions: 100 μM GM1, 24 hrs, conditioned medium of MN9D cells expressing GFP-tagged human WT α-Syn
# Experimental: It has recently become appreciated that cell-to-cell transfer of α-Syn may be an important factor in the progression of synucelinopathies. Cell-to-cell transfer of α-Syn can occur as free α-Syn or as α-Sy-containing exosomes. Herein, a preliminary study was conducted to assess the extent to which GM1 can influence α-Syn release and/or uptake by neighboring cells. MIN9D dopaminergic cells stably expressing human WT α-Syn tagged with GFP were cultured to ˜90% confluency and shifted to serum free media for 48 hours to generate conditioned medium (CM), which was collected, spun at 1000 rpm for 10 minutes and filtered through a sterile […] filter. Normal SH-SY5Y cells (ATCC) were plated in 8 well chamber slides and differentiated in 10 μM retinoic acid for 7 days. Sterile CM or regular medium were used to replace 50% of the medium in each well. The cells were grown in the CM for 24 hours in presence or absence of 100 μM GM1, fixed in 4% paraformaldehyde for 10 minutes, and processed for enhanced visualization of GFP using GFP immunofluorescence.
# [2] = system: AAV-A53T α-synuclein rat model; experiment: Stereological counting of TH+ and Nissl (cresyl violet) stained neurons in the SNc; type: in vivo
# Experimental: Institutional Animal Care and Use Committee and conducted in accordance with the National Institutes of Health Guide for the Care and Use of Laboratory Animals. Adult male Sprague-Dawley rats (Envigo), 250 to 300 g at the time of surgery, were housed three per cage with ad libitum access to food and water during a 12-hour light/dark cycle. All surgeries were performed under general anesthesia using a mixture of ketamine (100 mg/kg, i.p.) and xylazine (10 mg/kg, i.p.). Once animals were anesthetized, the head was shaved and surgically prepped with Betadine solution and alcohol before being placed in a Kopf stereotaxic frame with the incisor bar set at approximately 3.5 mm below horizontal zero to achieve a flat skull position. The skin on the top of the skull was cut along the midline and retracted. […] Following a 5 minute wait period after completion of the injection, the needle was slowly withdrawn, the skin wound was closed, and post-surgery analgesia (meloxicam 1 mg/kg) was administered. Some rats were randomly assigned to receive daily GM1 ganglioside (porcine brain derived GM1, 30 mg/kg, i.p., Qilu Pharmaceutical Co., Ltd.) or similar volume saline injections beginning 24 hours after AAV-A53T-synuclein surgery and lasting for 6 weeks (early start group). Other animals were randomly assigned to receive daily GM1 ganglioside (porcine brain derived GM1, 30 mg/kg, i.p., Qilu Pharmaceutical Co.) or similar volume saline injections beginning 3 weeks after AAV-A53T-synuclein surgery and lasting for 5 weeks (delayed start group). […] At the conclusion of the study, animals were euthanized, fresh brains were rapidly removed, and two to three striatal samples from both sides were dissected and immediately frozen for later analyses. The remainder of the brain (including the striatum beginning at the level of the decussation of the anterior commissure) was submersion fixed in 4% paraformaldehyde.
# Fixed tissue blocks were immersed in 30% sucrose for cryoprotection and sectioned frozen on a sliding microtome (30 μm section thickness for striatal sections; 40 μm section thickness for SN sections). Sections through the rostro-caudal extent of the SN were collected and every sixth section from the SN was processed for tyrosine hydroxylase (TH) immunohistochemistry to be used for stereological cell counting. Three striatal sections from approximately the level of the decussation of the anterior commissure in each case were processed for α-synuclein immunohistochemistry. For immunohistochemistry, sections were washed and permeabilized with PBS containing 0.2% Triton X-100. Endogenous peroxidase activity was quenched using 3% hydrogen peroxide in PBS containing 0.2% Triton X-100. Sections were then blocked in PBS/triton X-100 containing 10% normal goat serum and 2% BSA, followed by primary antibody incubation (TH (rabbit anti-TH, 1:2,000, Pel-Freez); α-synuclein (mouse anti-α-synuclein clone 211; 1:2000, Millipore) overnight at 4° C. The following day, sections were washed in PBS and incubated in biotinylated secondary antibody (goat-anti-rabbit 1:4000 for TH; goat-anti-mouse 1:2000 for α-synuclein 1:2000, VECTOR Laboratories), followed by additional washes and incubation in avidin biotin complex (VECTASTAIN Elite ABC system, VECTOR Laboratories). The reaction product was visualized with 3,3′-diaminobenzidine (DAB) (Immpact DAB, VECTOR Laboratories). Sections were then mounted, dehydrated, cleared and coverslipped. Sections stained for visualization of TH and to be used for stereological cell counting were counterstained with cresyl violet prior to coverslipping. Stereological estimates of the numbers of TH and cresyl violet-stained neurons in the SNc on both sides of the brain were obtained using StereoInvestigator software (MBF Bioscience) and an Olympus BX-60 microscope equipped with a Ludl motorized stage. Slides were coded and analyzed blindly. […]
# [3] = AAV-A53T/Delayed GM1, injected side
# [4] = AAV-A53T/Delayed GM1, non-injected side
# [5] = AAV-A53T/Early GM1, injected side
# [6] = AAV-A53T/Early GM1, non-injected side
substance,measurement,setting,value
GM1 ganglioside,uptake of GFP-α-Syn into SH-SY5Y cells,[1],reduced levels of GFP-α-Syn; also recorded: reduced uptake of GFP-α-Syn
same,Nissl+ Cells,[2]; [3],3335 ± 148^d
same,TH+ Cells,[2]; [3],2814 ± 134^c
same,Nissl+ Cells,[2]; [4],6113 ± 132
same,TH+ Cells,[2]; [4],5685 ± 143
same,Nissl+ Cells,[2]; [5],3557 ± 172^b
same,TH+ Cells,[2]; [5],3144 ± 159^a
same,Nissl+ Cells,[2]; [6],6074 ± 174
same,TH+ Cells,[2]; [6],5601 ± 135
same,loss of TH+ neurons compared to the contralateral side,"[2]; delayed start GM1, 8 weeks",50.6±2.1%
same,loss of cresyl violet-stained neurons compared to the contralateral side,"[2]; delayed start GM1, 8 weeks",45.5±2.1%
same,loss of TH+ neurons compared to the non-injected side,"[2]; early start GM1, 6 weeks",43.7±2.7%
same,loss of cresyl violet-stained neurons compared to the contralateral side,"[2]; early start GM1, 6 weeks",41.9±2.5%
